Laboratory results reported in ChEMBL document CHEMBL4033691, “Discovery and structure-guided fragment-linking of 4-(2,3-dichlorobenzoyl)-1-methyl-pyrrole-2-carboxamide as a pyruvate kinase M2 activator” (Bioorg Med Chem, 2017).
The source made the active and inactive calls. No cut-off for these calls is given here.

Legend:
Pyruvate kinase PKM [1] = target: T1, Pyruvate kinase PKM (Homo sapiens, UniProt P14618); experiment: Activation of full length recombinant human N-terminal His6-tagged PKM2 expressed in Escherichia coli BL21(DE3) using PEP as substrate preincubated for 5 mins followed by substrate addition measured after 90 mins in presence of ADP by Kinase-Glo luminescence assay
Pyruvate kinase PKM [2] = target: T1, Pyruvate kinase PKM; experiment: Activation of PKM2 in human A549 cells using PEP as substrate preincubated for 1 hr followed by substrate addition measured after 1 hr in presence of ADP by Kinase-Glo luminescence assay; type: cell-based
Target sequence in this assay (P14618 whole entry): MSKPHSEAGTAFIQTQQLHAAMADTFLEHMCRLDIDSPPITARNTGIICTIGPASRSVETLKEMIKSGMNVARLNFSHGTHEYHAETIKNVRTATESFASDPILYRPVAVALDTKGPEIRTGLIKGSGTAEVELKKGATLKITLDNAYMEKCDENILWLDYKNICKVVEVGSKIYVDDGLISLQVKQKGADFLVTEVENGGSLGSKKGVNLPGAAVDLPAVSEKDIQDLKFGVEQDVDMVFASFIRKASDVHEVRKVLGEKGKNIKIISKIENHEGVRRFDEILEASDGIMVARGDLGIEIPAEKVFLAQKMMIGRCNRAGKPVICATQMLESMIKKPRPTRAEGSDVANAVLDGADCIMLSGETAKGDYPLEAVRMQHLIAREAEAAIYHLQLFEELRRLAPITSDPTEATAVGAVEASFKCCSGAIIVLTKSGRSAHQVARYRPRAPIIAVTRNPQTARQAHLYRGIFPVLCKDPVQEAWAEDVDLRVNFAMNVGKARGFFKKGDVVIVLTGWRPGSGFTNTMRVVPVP

Pyruvate kinase PKM [3] = target: T1, Pyruvate kinase PKM; experiment: Activation of full length recombinant human N-terminal His6-tagged PKM2 expressed in Escherichia coli BL21(DE3) at 10 ug/ml using PEP as substrate preincubated for 5 mins followed by substrate addition measured after 90 mins in presence of ADP by Kinase-Glo luminescence assay relative to control
Target sequence in this assay (P14618 2-531 limits assumed): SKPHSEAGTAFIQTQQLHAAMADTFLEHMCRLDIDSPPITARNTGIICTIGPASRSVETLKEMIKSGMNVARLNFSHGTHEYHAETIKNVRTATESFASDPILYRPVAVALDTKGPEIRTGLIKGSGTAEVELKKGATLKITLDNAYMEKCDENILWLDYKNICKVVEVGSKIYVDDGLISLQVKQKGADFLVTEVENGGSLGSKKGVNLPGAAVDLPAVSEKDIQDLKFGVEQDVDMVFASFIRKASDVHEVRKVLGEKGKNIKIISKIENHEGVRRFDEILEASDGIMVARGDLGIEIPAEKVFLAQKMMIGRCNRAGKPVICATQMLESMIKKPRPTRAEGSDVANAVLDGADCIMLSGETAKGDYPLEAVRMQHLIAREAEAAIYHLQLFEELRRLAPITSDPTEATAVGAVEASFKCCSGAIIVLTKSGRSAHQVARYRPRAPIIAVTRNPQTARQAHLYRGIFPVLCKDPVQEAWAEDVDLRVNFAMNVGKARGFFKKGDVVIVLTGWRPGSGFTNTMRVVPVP

[4] = Stability of the compound; type: physicochemical
Pyruvate kinase PKM [5] = target: T1, Pyruvate kinase PKM; experiment: Activation of PKM2 in human A549 cells using PEP as substrate preincubated for 1 hr followed by substrate addition measured after 1 hr in presence of ADP by Kinase-Glo luminescence assay relative to control; type: cell-based
Target sequence in this assay (P14618 2-531 limits assumed): as above

A549 = experiment: Growth inhibition of human A549 cells after 72 hrs in presence of serine by CellTiter-Glo luminescent assay; type: functional, cell-based

## Cn1cc(C(=O)c2cccc(Cl)c2Cl)cc1C(N)=O
Pyruvate kinase PKM [1]
  AC200: 26 µM
Pyruvate kinase PKM [2]
  AC50: > 100000 nM
Pyruvate kinase PKM [3]
  Emax: 198%

## O=S(=O)(c1ccc2c(c1)OCCO2)N1CCN(S(=O)(=O)c2c(F)cccc2F)CC1
Pyruvate kinase PKM [1]
  AC50: 150 nM
Pyruvate kinase PKM [3]
  Emax: 181%

## Cn1cc(C(=O)c2cccc(Cl)c2Cl)cc1C(=O)NCNC(=O)c1cc(C(=O)c2cccc(Cl)c2Cl)cn1C
Pyruvate kinase PKM [3]
  Emax: 194%
[4]
  Stability: Unstable

## Cn1cc(C(=O)c2cccc(Cl)c2Cl)cc1C(=O)NCCNC(=O)c1cc(C(=O)c2cccc(Cl)c2Cl)cn1C
Pyruvate kinase PKM [2]
  AC50: 188 nM
Pyruvate kinase PKM [3]
  Emax: 184%
Pyruvate kinase PKM [5]
  Activity: 598%
A549
  growth inhibition (GI): inactive
